Measured values taken from publication PMC11233548 (Communications Biology, 2024).
“Also recorded” adds a separate entry of the source. Where two headings read alike, the source gives them in different places. Starred links: 1 amine or outer side, 2 acyl side, 3 side chain; linkers in the order of their positions; H or OH if unused. Primed or numbered codes have the meaning given here. No end group written: not given here. *: point of attachment. PEG5′ = linker from Fmoc-PEG5-OH (18-amino-4,7,10,13-tetraoxaoctadecanoic acid), O=C(CCOCCOCCOCCOCCCCCN[*:1])[*:2]; fluorescein = fluorescein label on the N-terminal amino group, attached via an aminohexanoic acid linker; FITC = O=C1OC2(c3ccc(O)cc3Oc3cc(O)ccc32)c2ccc(NC(=S)*)cc21; Biotin = O=C1N[C@H]2[C@H](CS[C@H]2CCCCC(=O)*)N1; Ahx = NCCCCCC(=O)O

Legend:
[1] = system: Gal1/C-RBD; experiment: FLIM-FRET Gal1/C-RBD interaction in HEK cells; assay type: cell-based, rat Gal1; C-RBD of human C-Raf; HEK cells; details: mGFP-Gal1 / mRFP-C-RBD 1:3, expression (24 h) of plasmid or compound, n = 3
[2] = system: His-tagged Gal1; experiment: Competitive fluorescence polarization, displacement of F-L5UR from His-tagged Gal1; assay type: binding; details: F-L5UR (5 nM), Gal1 (5 µM); n = 2
[3] = biological target: Gal1 (Homo sapiens) (UniProt P09382); details: cited from earlier work
[4] = biological target: GST-B-RBD (Homo sapiens, UniProt P15056); experiment: Pull-down with biotinylated L5UR, GST-B-RBD; assay type: binding; details: biotinylated L5UR 4 µM, proteins 2 µM; n = 3
Protocol: (§1) Biotinylated L5UR (bio-L5UR) peptide was synthesized as described above with a PEG5-linker to link the biotin to the L5UR peptide. GST, GST-B-Raf-RBD (155–227), and His-Gal1 were prepared as described above. Each protein in the assay was used at 2 µM concentration, and the peptide was at 4 µM in a reaction of 150 µL. First, peptide and Gal1 were pre-incubated for 30 min at 37 °C, then GST-B-RBD or GST alone was added, and the reaction continued for another hour. Control reaction mixes contained DMSO-vehicle instead of the peptide. At the end of the reaction time, 10 µL of each sample was withdrawn for SDS-PAGE analysis as inputs. For pull-downs, 5 µL of the beads were taken per sample. To prepare the beads, an appropriate volume of the slurry was pipetted into 15 mL falcon tubes and centrifuged at 830×g for 1 min to remove the ethanol-containing supernatant. The falcon tube was topped up to 15 mL with distilled water and centrifuged for 1 min to remove water. This washing step was repeated three times. Finally, the beads were resuspended in distilled water so that the final bead volume was 4× diluted i.e., 20 µL were pipetted to each tube. […] The analysis was done by resolving the samples (8 µL of the input samples and 10 µL of the eluted material) on 4–20% gradient SDS-PAGE gels and analyzed by Western blotting. […]

[5] = system: Gal1; experiment: Pull-down with biotinylated L5UR, Gal1; assay type: binding; details: biotinylated L5UR 4 µM, proteins 2 µM; n = 3
Protocol: as §1

[6] = system: HEK cells (pERK, pAkt); assay type: cell-based, human; details: 2 h, EGF 200 ng/mL 10 min; n = 3–8
[7] = system: H-RasG12V nanoclustering; experiment: H-RasG12V nanoclustering-BRET in HEK cells; assay type: cell-based, human; details: n = 3
[8] = system: H-RasG12V nanoclustering; experiment: FLIM-FRET H-RasG12V nanoclustering in HEK cells; assay type: cell-based, HEK cells; rat Gal1; details: donor:acceptor 1:3, expression (24 h), n = 3
[9] = system: H-RasG12V nanoclustering; experiment: Electron microscopy-based analysis of H-RasG12V nanoclustering in BHK cells; assay type: cell-based, baby hamster kidney (BHK) cells; details: membrane sheets of Gal1-expressing BHK cells; n = 15
Excerpt: To quantify the nanoclustering of a component integral to the plasma membrane (PM), the apical PM sheets of baby hamster kidney (BHK) cells expressing a GFP-tagged H-Ras construct were fixed with 4% (w/v) PFA and 0.1% (w/v) glutaraldehyde. GFP anchored to the PM sheets was probed with 4.5 nm gold particles pre-coupled to anti-GFP antibody. Following embedment with methyl cellulose, the PM sheets were imaged using transmission electron microscopy (JEOL JEM-1400). Using the coordinates of every gold particle, Ripley’s K-function calculated the extent of nanoclustering of gold particles within a selected 1 μm^2 PM area: K(r)=An^−2∑i≠jwij1(∥xi−xj∥≤r) Lr−r=Kr/π−r where n gold particles populate in an intact area of A; r is the length between 1 and 240 nm; || ^. || indicates Euclidean distance where 1(^.) = 1 if ||xi − xj|| ≤ r and 1(^.) = 0 if ||xi − xj|| > r; K(r) specifies the univariate K-function. wij^−1 is a parameter used for an unbiased edge correction and characterizes the proportion of the circumference of a circle that has the center at xi and radius ||xi-xj||. Monte Carlo simulations estimate the 99% confidence interval (99% C.I.), which is then used to linearly transform K(r) into L(r) − r. On a nanoclustering curve of L(r) − r vs. r, the peak L(r) − r value is used as summary statistics for nanoclustering and is termed as Lmax. […]

[10] = biological target: Gal1; details: residues 22–45 of L5UR, opposite side of the carbohydrate binding site of Gal1; ref 38 (Elantak et al.); cited from earlier work
Excerpt: (Supplementary Fig. 2a). […] We hypothesized that the 52-mer L5UR peptide, which was derived from a Gal1 interaction partner, could act as a Raf-RBD/Gal1-interface inhibitor. Its residues 22–45 were previously ... || page 9: Question 3-2. The authors measure the affinity of L5UR to BRAF GST-RBD using fluorescence polarization. The affinity is an increase is 40-fold over the affinity of this peptide to Gal1 – this is a significant enhancement, do the authors have an explanation for this? […] In the pull-downs containing both Gal1 and GST-RBD both proteins are pulled down to equal levels, again this is surprising as one would exp ...

[11] = system: Hs 578 T cells (pERK, pAkt); experiment: Immunoblot of EGF-induced pERK and pAkt in Hs 578 T; assay type: cell-based, human; details: intermediate concentrations, 2 h
[12] = system: MIA PaCa-2 cells (pERK, pAkt); experiment: Immunoblot of EGF-induced pERK and pAkt in MIA PaCa-2; assay type: cell-based, human; details: intermediate concentrations, 2 h
[13] = biological target: Gal1/B-RBD (Homo sapiens, UniProt P15056); experiment: Gal1/B-RBD BRET in HEK cells; assay type: cell-based; details: peptide added to HEK cells, 0.1 µM to 100 µM, 2 h incubation; donor:acceptor 1:10; n ≥ 2
[14] = biological target: Gal1 (Homo sapiens) (UniProt P09382); details: cited from earlier work; remark: listed apart in the source
Target sequence in this assay (P09382 2-135): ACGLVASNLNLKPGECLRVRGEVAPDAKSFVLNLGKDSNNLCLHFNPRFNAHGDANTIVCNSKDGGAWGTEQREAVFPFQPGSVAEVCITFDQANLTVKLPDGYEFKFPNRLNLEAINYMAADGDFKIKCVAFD

[15] = system: GST; experiment: Direct fluorescence polarization binding of F-L5UR to GST (control); details: 10 nM F-L5UR, n = 3
Protocol: For the direct binding assay, the GST-B-RBD, or GST, was 2-fold diluted in an assay buffer composed of 50 mM Tris HCl pH 7.4, 50 mM NaCl, 5 mM DTT, and 0.005% (v/v) Tween 20 in a black low volume, round bottom 384-well plate (Corning, #4514). Then 10 nM F-L5UR peptide was added to each well and incubated for 20 min at ~22 °C on a horizontal shaker. The fluorescence polarization measurement was performed on the Clariostar (BMG Labtech) plate reader, using a fluorescence polarization module (λexcitation 482 ± 8 nm and λemission 530 ± 20 nm). The milli fluorescence polarization, mP, was determined from the measured fluorescence intensities, calculated according to, mP=1000×Ih−Iv/Ih+Iv where Iv and Ih are the fluorescence emission intensities detected with vertical and horizontal polarization, respectively. The mP was plotted against the concentration of the GST-RBD and the KD value of the F-L5UR was calculated using a quadratic equation, y=Af+Ab−Af*Lt+KD+x−(Lt+KD+x)^2−4*Lt*x/2Lt

[16] = biological target: B-Raf-derived RBD (BRET construct) (UniProt P15056)
[17] = biological target: T1, GST-tagged B-Raf-RBD (155-227) (human, UniProt P15056 155-227); details: both partners purified
T1 construct: also called GST-B-RBD; GST-B-Raf-RBD; source: E. coli, purified (glutathione agarose)

[18] = biological target: T2, C-Raf-RBD (50-134), purified (human, UniProt P04049 50-134); experiment: fluorescence polarisation; competitive: non-labeled peptides 3-fold diluted, added to a complex of F-L5UR and RBD (methods: 5 nM and 200 nM; legend of Fig. 2e: 10 nM and 15 µM GST-B-RBD); 30 min at ~22 °C; four-parameter fit; details: both partners purified
T2 construct: also called C-RBD; source: E. coli, purified (glutathione agarose)

[19] = biological target: T2, C-Raf-RBD (50-134), purified; experiment: as above; details: both partners purified; remark: listed apart in the source
[20] = biological target: T1, GST-tagged B-Raf-RBD (155-227); experiment: as above; details: both partners purified

T1 sequence (P15056 155-227): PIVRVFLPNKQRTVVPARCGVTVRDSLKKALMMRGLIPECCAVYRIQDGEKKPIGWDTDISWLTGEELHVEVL
Chain of GST-B-RBD (P15056 155-227): as above
Chain of Gal1/B-RBD (P15056 155-227): as above
Chain of B-Raf-derived RBD (BRET construct) (P15056 155-227): as above

With Anginex the “effect on Gal1/C-RBD FRET” value [1] was “neither Anginex nor OTX-008 disrupted the Gal1/C-RBD interaction” and the “displacement of F-L5UR from Gal1” value [2] was “it can be displaced from purified His-tagged Gal1”.

In the case of Gal1 (from UniProt P09382), the Kd [3] is listed as 7 µM.

For “bio-L5UR: Biotinylated L5UR with a PEG5-linker linking biotin to the L5UR peptide ({Biotin-PEG5′}-LLRPTAASQSRALGPGAPGGSSRSSLRSRWGRFLLQRGSWTGPRCWPRGFQS-NH2)”, the “pull-down of GST-B-RBD” value [4] was “pulled down Gal1 and the GST-B-RBD independently from each other” and the “pull-down of Gal1” value [5] was “pulled down Gal1 and the GST-B-RBD independently from each other”.

With CC(=O)Nc1cccc(-n2c(=O)n(C3CC3)c(=O)c3c(Nc4ccc(I)cc4F)n(C)c(=O)c(C)c32)c1 [trametinib, reference compound] the “pAkt levels, HEK” value [6] was “also upregulated by trametinib”.

With “Ac-LLRPTAASQSRALGPGAPGGSSRSSLRSRWGRFLLQRGSWTGPRCWPRGFQS-NH2 (N-terminus and C-terminus assumed) [L5UR]” the “effect of construct expression on H-RasG12V nanoclustering-BRET without co-expression of Gal1” value ([7]; expression (48 h), HEK cells comparatively devoid of Gal1, donor:acceptor 1:5) was “very similar effects even without co-expression of Gal1”, the “reduction of H-RasG12V nanoclustering-BRET” value ([7]; expression (48 h), co-transfection of 200 ng Gal1 plasmid, donor:acceptor 1:5, Fig. 3c) was ~ 33% and the “effect on Gal1/C-RBD FRET” value [1] was “decreased the FRET between mGFP-Gal1 and mRFP-C-RBD”. For the same molecule, the “effect on H-RasG12V nanoclustering-FRET” value ([8]; Gal1-augmented) was “decreased the Gal1-augmented H-RasG12V nanoclustering-FRET”, the “effect on H-RasG12V nanoclustering-FRET, N-Gal1” value ([8]; dimerization-deficient N-Gal1) was “had no additional effect” and the “disruption of H-RasG12V nanoclustering (Lmax)” value [9] was “disruption of H-RasG12V nanoclustering by L5UR- and L5UR-SNAP construct expression”. For the same molecule, the Kd [10] was 310 µM.

For “GRKKRRQRRRPQ [TAT, 12-residue cell penetrating peptide derived from an HIV-protein, reference compound]”, the “effect of peptide on H-RasG12V nanoclustering BRET” value ([7]; peptide added to HEK cells, 0.1 µM to 100 µM, 2 h incubation, donor:acceptor 1:5, 200 ng Gal1 plasmid) was “Neither the TAT-peptide alone, nor the mutant TAT-mutL5URcore, or the non-TAT peptides L5URcore and mutL5URcore decreased the BRET-signal in either assay”, the “pERK- and/or pAkt-levels, Hs 578 T” value [11] was “apparently non-specific increase in pERK- and/or pAkt-levels” and the “pERK- and/or pAkt-levels, MIA PaCa-2” value [12] was “apparently non-specific increase in pERK- and/or pAkt-levels”. The “effect of peptide on Gal1/B-RBD BRET” value [13] was “Neither the TAT-peptide alone, nor the mutant TAT-mutL5URcore, or the non-TAT peptides L5URcore and mutL5URcore decreased the BRET-signal in either assay”.

With CN(C)CCNC(=O)COc1c2cccc1Cc1cccc(c1OCC(=O)NCCN(C)C)Cc1cccc(c1OCC(=O)NCCN(C)C)Cc1cccc(c1OCC(=O)NCCN(C)C)C2 [OTX-008] the “effect on Gal1/C-RBD FRET” value [1] was “neither Anginex nor OTX-008 disrupted the Gal1/C-RBD interaction”.

For “L5UR peptide 22-45 (from UniProt P15814)”, the Kd [14] is listed as 310 µM.

In the case of “F-L5UR: fluorescein attached to N-terminus amino group of L5UR via aminohexanoic acid linker ({fluorescein-Ahx}-LLRPTAASQSRALGPGAPGGSSRSSLRSRWGRFLLQRGSWTGPRCWPRGFQS)”, the “binding to GST alone” value [15] is reported as “no binding to GST alone; also recorded: negligible binding”.

B1: L5UR peptide, untagged, expressed in cells (peptide)
chain: LLRPTAASQSRALGPGAPGGSSRSSLRSRWGRFLLQRGSWTGPRCWPRGFQS
With B1 the reduction of Gal1-enhanced H-RasG12V nanoclustering-BRET in HEK cells on expression of the construct (it blocks Gal1/B-RBD) [16] was 33%.

B2: FITC-tagged full-length L5UR (peptide, UniProt P15814 38-89, looked up)
peptide: {FITC-Ahx}-LLRPTAASQSRALGPGAPGGSSRSSLRSRWGRFLLQRGSWTGPRCWPRGFQS
notes: 52-mer L5UR: residues 38-89 of the unique region of the λ5-chain (λ5-UR) of the pre-B-cell receptor; also called F-L5UR; source: synthetic peptide; bought: Pepmic Co., China
In the case of B2, the Kd [17] is reported as 7.3 ± 0.7 µM and the binding result [18] is reported as “binds”.

B3: L5UR peptide, non-labeled (peptide, UniProt P15814 38-89, looked up)
peptide: B1 chain
notes: 52-mer L5UR: residues 38-89 of the unique region of the λ5-chain (λ5-UR) of the pre-B-cell receptor; also called full-length peptide of L5UR; source: synthetic peptide; bought: Pepmic Co., China
Work on B3 yielded an IC50 [19] of 4 ± 1 µM and an IC50 [20] of 2 ± 1 µM.
